Tested on: VSV (HIV-1/VSV-G) pseudotyped virus
Test: not given
Format: cell-based, vesicular stomatitis virus
Conditions: not given

For `COc1ccc(CN2CCOc3cc(O[C@H]4CCCN(C)C4)cc(-c4ccc(C)s4)c3C2)c(O)c1` [Compound I49], the “Inhibitory activity against VSV-G-pseudotyped virus entry” value (“Inhibitory activity” for short) was “least average inhibitory activity against VSV-G”.
For `COc1ccc(CNCc2cc(F)cc(F)c2)cc1OC[C@H](O)CN1CCN(C)CC1` [Compound S29], the “Inhibitory activity” value was “least average inhibitory activity against VSV-G”.
With `CN1CCCC(CNC(=O)c2cc(NCc3ccccc3F)cc(S(=O)(=O)CNC(C)(C)C)c2)C1` (centres unmarked) [Compound S58] the “Inhibitory activity” value was “least average inhibitory activity against VSV-G”.
For `CN(C)[C@@H]1CCN(CC(c2ccccc2)c2ccccc2)C[C@@H]1CCC(=O)NCc1ccc2c(c1)OCO2` [Compound S31], the “Inhibitory activity” value was “least average inhibitory activity against VSV-G”.

Tested on: EBOV-pseudotyped virus
Test: not given
Format: cell-based, Zaire ebolavirus
Conditions: not given

For `CCOC(=O)[C@H]1O[C@@H]1C(=O)N[C@@H](CC(C)C)C(=O)NCCC(C)C` [Compound E64d, E64d], the “Time point up to which maximum inhibition occurred” value was no more than 80 min.

Tested on: EBOV (HIV-1/EBOV-GP) pseudotyped virus
Test: not given
Conditions: not given

For `COc1ccc(CN2CCOc3cc(O[C@H]4CCCN(C)C4)cc(-c4ccc(C)s4)c3C2)c(O)c1` [Compound I49], the “Normalized luciferase signal (infectivity signal per cell as a fraction of the maximum)” value was “most activity”.
With `Cc1ccc(C(=O)N/C(=C/c2ccc(-c3ccc(Br)cc3)o2)C(=O)NCCCN(C)C)cc1` [Compound I01] the “Normalized luciferase signal (infectivity signal per cell as a fraction of the maximum)” value was “most activity”.

Compared with `COc1ccc(CN2CCOc3cc(O[C@H]4CCCN(C)C4)cc(-c4ccc(C)s4)c3C2)c(O)c1` [Compound I49], `COc1ccc(CNCc2cc(F)cc(F)c2)cc1OC[C@H](O)CN1CCN(C)CC1` [Compound S29] is higher in “SI (CC50/IC50), Pseudotyped” value: 3.8 for the first, 4.4 for the second.

Compared with `Cc1ccc(C(=O)N/C(=C/c2ccc(-c3ccc(Br)cc3)o2)C(=O)NCCCN(C)C)cc1` [Compound I01], `CN(C)[C@@H]1CCN(CC(c2ccccc2)c2ccccc2)C[C@@H]1CCC(=O)NCc1ccc2c(c1)OCO2` [Compound S31] is higher in “SI (CC50/IC50), Pseudotyped” value: 8.2 for the first, 8.9 for the second.

Same assay, conditions: read-out: IC50, Pseudotyped (no detergent)

Going from `COc1ccc(CN2CCOc3cc(O[C@H]4CCCN(C)C4)cc(-c4ccc(C)s4)c3C2)c(O)c1` [Compound I49] to `COc1ccc(CNCc2cc(F)cc(F)c2)cc1OC[C@H](O)CN1CCN(C)CC1` [Compound S29], the IC50 rises from 2.91 ± 0.63 µM to 25.7 ± 9 µM (8.8-fold). The first is the more potent here.

`CN(C)[C@@H]1CCN(CC(c2ccccc2)c2ccccc2)C[C@@H]1CCC(=O)NCc1ccc2c(c1)OCO2` [Compound S31] showed an IC50 of 4.77 µM.

Tested on: 293T cells
Test: not given
Conditions: not given

With `CN1CCCC(CNC(=O)c2cc(NCc3ccccc3F)cc(S(=O)(=O)CNC(C)(C)C)c2)C1` (centres unmarked) [Compound S58] the “Impact on cell viability (cytotoxicity curves)” value was “minimal impact on cell viability”.

Same assay, conditions: 25 μM

For `COc1ccc(CN2CCOc3cc(O[C@H]4CCCN(C)C4)cc(-c4ccc(C)s4)c3C2)c(O)c1` [Compound I49], the “Cytotoxicity in single-concentration screen” value was “most cytotoxic”.
With `Cc1ccc(C(=O)N/C(=C/c2ccc(-c3ccc(Br)cc3)o2)C(=O)NCCCN(C)C)cc1` [Compound I01] the “Cytotoxicity in single-concentration screen” value was “most cytotoxic”.

Same assay, conditions: human

`COc1ccc(CN2CCOc3cc(O[C@H]4CCCN(C)C4)cc(-c4ccc(C)s4)c3C2)c(O)c1` [Compound I49] and `Cc1ccc(C(=O)N/C(=C/c2ccc(-c3ccc(Br)cc3)o2)C(=O)NCCCN(C)C)cc1` [Compound I01] are within error of each other in CC50: 11 ± 6.46 µM for the first, 14.6 ± 5.86 µM for the second.

Tested on: EBOV trVLP
Test: not given
Conditions: not given

Going from `Cc1ccc(C(=O)N/C(=C/c2ccc(-c3ccc(Br)cc3)o2)C(=O)NCCCN(C)C)cc1` [Compound I01] to `CN(C)[C@@H]1CCN(CC(c2ccccc2)c2ccccc2)C[C@@H]1CCC(=O)NCc1ccc2c(c1)OCO2` [Compound S31], the “SI (CC50/IC50), trVLP” value rises from 8.8 to 11.1.

Compared with `COc1ccc(CNCc2cc(F)cc(F)c2)cc1OC[C@H](O)CN1CCN(C)CC1` [Compound S29], `CN1CCCC(CNC(=O)c2cc(NCc3ccccc3F)cc(S(=O)(=O)CNC(C)(C)C)c2)C1` (centres unmarked) [Compound S58] is higher in “SI (CC50/IC50), trVLP” value: 2.9 for the first, 25.8 for the second.

Same assay, conditions: read-out: IC50, trVLP

In the case of `COc1ccc(CNCc2cc(F)cc(F)c2)cc1OC[C@H](O)CN1CCN(C)CC1` [Compound S29], the IC50 is reported as 26.3 ± 17.1 µM.

Tested on: steroidogenic acute regulatory protein
Test: not given
Conditions: cited from earlier work

For `Cc1ccc(C(=O)N/C(=C/c2ccc(-c3ccc(Br)cc3)o2)C(=O)NCCCN(C)C)cc1` [Compound I01], the “Activity on steroidogenic acute regulatory protein” value is listed as “nonspecific inhibitor”.

Tested on: not listed separately
Test: in vitro
Conditions: human, CC50, Pseudotyped

First: COc1ccc(CN2CCOc3cc(O[C@H]4CCCN(C)C4)cc(-c4ccc(C)s4)c3C2)c(O)c1 [Compound I49]
Second: COc1ccc(CNCc2cc(F)cc(F)c2)cc1OC[C@H](O)CN1CCN(C)CC1 [Compound S29]
The CC50 of the first is lower: 11 to 15 µM for the first, 113 ± 82.2 µM for the second.

Compared with `Cc1ccc(C(=O)N/C(=C/c2ccc(-c3ccc(Br)cc3)o2)C(=O)NCCCN(C)C)cc1` [Compound I01], `CN(C)[C@@H]1CCN(CC(c2ccccc2)c2ccccc2)C[C@@H]1CCC(=O)NCc1ccc2c(c1)OCO2` [Compound S31] is higher in CC50: 11 to 15 µM for the first, 42.4 ± 15.4 µM for the second.

Tested on: not listed separately
Test: in vitro
Conditions: human

First: Cc1ccc(C(=O)N/C(=C/c2ccc(-c3ccc(Br)cc3)o2)C(=O)NCCCN(C)C)cc1 [Compound I01]
Second: CN(C)[C@@H]1CCN(CC(c2ccccc2)c2ccccc2)C[C@@H]1CCC(=O)NCc1ccc2c(c1)OCO2 [Compound S31]
The CC50 of the first is 2.7-fold lower: 9.72 ± 3.23 µM for the first, 26.7 µM for the second.

`COc1ccc(CNCc2cc(F)cc(F)c2)cc1OC[C@H](O)CN1CCN(C)CC1` [Compound S29] and `CN1CCCC(CNC(=O)c2cc(NCc3ccccc3F)cc(S(=O)(=O)CNC(C)(C)C)c2)C1` (centres unmarked) [Compound S58] are within error of each other in CC50: 75.1 ± 24.4 µM for the first, 105 ± 57.1 µM for the second.

Tested on: EBOV (HIV-1/EBOV-GP) pseudotyped virus
Test: microbe, parasite or virus in culture
Conditions: Zaire ebolavirus, HEK-293T, read-out: IC50, Pseudotyped (no detergent)

Going from `COc1ccc(CN2CCOc3cc(O[C@H]4CCCN(C)C4)cc(-c4ccc(C)s4)c3C2)c(O)c1` [Compound I49] to `CN1CCCC(CNC(=O)c2cc(NCc3ccccc3F)cc(S(=O)(=O)CNC(C)(C)C)c2)C1` (centres unmarked) [Compound S58], the IC50 rises from less than 5 µM to 19.5 ± 18.9 µM. The first is the more potent here.

First: COc1ccc(CNCc2cc(F)cc(F)c2)cc1OC[C@H](O)CN1CCN(C)CC1 [Compound S29]
Second: CN(C)[C@@H]1CCN(CC(c2ccccc2)c2ccccc2)C[C@@H]1CCC(=O)NCc1ccc2c(c1)OCO2 [Compound S31]
The IC50 of the first is higher: roughly 26 µM for the first, less than 5 µM for the second. The second is the more potent here.

Same assay, conditions: Zaire ebolavirus, HEK-293T, read-out: IC50 with Tween 80

Compared with `COc1ccc(CN2CCOc3cc(O[C@H]4CCCN(C)C4)cc(-c4ccc(C)s4)c3C2)c(O)c1` [Compound I49], `CN1CCCC(CNC(=O)c2cc(NCc3ccccc3F)cc(S(=O)(=O)CNC(C)(C)C)c2)C1` (centres unmarked) [Compound S58] is 13-fold higher in IC50: 3.12 ± 0.68 µM for the first, 40.5 ± 24.4 µM for the second. The first is the more potent here.

First: Cc1ccc(C(=O)N/C(=C/c2ccc(-c3ccc(Br)cc3)o2)C(=O)NCCCN(C)C)cc1 [Compound I01]
Second: CN(C)[C@@H]1CCN(CC(c2ccccc2)c2ccccc2)C[C@@H]1CCC(=O)NCc1ccc2c(c1)OCO2 [Compound S31]
The IC50 of the first is 1.9-fold lower: 2.48 ± 1.35 µM for the first, 4.68 ± 0.36 µM for the second. The first is the more potent here.

`COc1ccc(CNCc2cc(F)cc(F)c2)cc1OC[C@H](O)CN1CCN(C)CC1` [Compound S29] showed an IC50 of 5.03 ± 3.62 µM.

Tested on: EBOV trVLP
Test: microbe, parasite or virus in culture
Conditions: Zaire ebolavirus, HEK-293T, read-out: IC50, trVLP

`COc1ccc(CN2CCOc3cc(O[C@H]4CCCN(C)C4)cc(-c4ccc(C)s4)c3C2)c(O)c1` [Compound I49] and `CN1CCCC(CNC(=O)c2cc(NCc3ccccc3F)cc(S(=O)(=O)CNC(C)(C)C)c2)C1` (centres unmarked) [Compound S58] are within error of each other in IC50: 2.67 ± 1.49 µM for the first, 4.08 ± 0.88 µM for the second.

First: Cc1ccc(C(=O)N/C(=C/c2ccc(-c3ccc(Br)cc3)o2)C(=O)NCCCN(C)C)cc1 [Compound I01]
Second: CN(C)[C@@H]1CCN(CC(c2ccccc2)c2ccccc2)C[C@@H]1CCC(=O)NCc1ccc2c(c1)OCO2 [Compound S31]
The IC50 of the first is 2.2-fold lower: 1.1 ± 0.99 µM for the first, 2.41 µM for the second.

Compound `COc1ccc(CNCc2cc(F)cc(F)c2)cc1OC[C@H](O)CN1CCN(C)CC1` [Compound S29] has an IC50 greater than 20 µM.

From paper PMC6639268 (Journal of Virology, 2019)
